Experimental data taken from the supplement of paper PMC10307832.

Columns and labels:
Test in all cases: relative viability (nuclei count vs DMSO), 5 days (fraction); higher = more cells survive
[1] = compound: CC1=NN=C(O1)C2=NN=C(C=C2)N3CCC(CC3)OC4=C(C=CC(=C4)F)Cl + Cc1nc(NC(=O)N2CCC[C@H]2C(N)=O)sc1-c1ccnc(C(C)(C)C(F)(F)F)c1 [Alpelisib] (partner 2 µM)
Method in brief: (§1)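 After 5 days of treatment, lung cancer cells in 1536-well plates were fixed and stained in a single step (final 0.05% Triton X-100, 1% formaldehyde, 1 ug/ml Hoechst) and their nuclei counted on 4× images. Treatment had been applied by pin tool the day after seeding as one drug alone or as a fixed anchor-drug dose with five library-drug doses (not always all listed) in √10 steps. Relative viability is the nuclei count of treated wells divided by that of vehicle wells, and values are medians of duplicate plates.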

Tosedostat + Decitabine = compound: CC(C)C[C@@H](C(=O)N[C@H](C(=O)OC1CCCC1)c1ccccc1)[C@H](O)C(=O)NO [Tosedostat] + Nc1ncn([C@H]2C[C@H](O)[C@@H](CO)O2)c(=O)n1 [Decitabine] (partner 2 µM)
Method in brief: as §1

[2] = compound: CC1=NN=C(O1)C2=NN=C(C=C2)N3CCC(CC3)OC4=C(C=CC(=C4)F)Cl + CS(=O)(=O)CCNCc1ccc(-c2ccc3ncnc(Nc4ccc(OCc5cccc(F)c5)c(Cl)c4)c3c2)o1 [Lapatinib] (partner 2 µM)
Method in brief: as §1

Tosedostat + Vorinostat = compound: CC(C)C[C@@H](C(=O)N[C@H](C(=O)OC1CCCC1)c1ccccc1)[C@H](O)C(=O)NO [Tosedostat] + O=C(CCCCCCC(=O)Nc1ccccc1)NO [Vorinostat] (partner 1 µM)
Method in brief: as §1

Cell Line	relative viability ([1]; first compound 0.253 µM)	relative viability ([1]; first compound 0.8 µM)	relative viability ([1]; first compound 2.53 µM)	relative viability ([1]; first compound 8 µM)	relative viability (Tosedostat + Decitabine; first compound 0.02 µM)	relative viability (Tosedostat + Decitabine; first compound 0.06325 µM)	relative viability (Tosedostat + Decitabine; first compound 0.2 µM)	relative viability (Tosedostat + Decitabine; first compound 0.6325 µM)	relative viability (Tosedostat + Decitabine; first compound 2 µM)	relative viability ([2]; first compound 0.253 µM)	relative viability ([2]; first compound 0.8 µM)	relative viability ([2]; first compound 2.53 µM)	relative viability ([2]; first compound 8 µM)	relative viability (Tosedostat + Vorinostat; first compound 0.02 µM)	relative viability (Tosedostat + Vorinostat; first compound 0.06325 µM)	relative viability (Tosedostat + Vorinostat; first compound 0.2 µM)	relative viability (Tosedostat + Vorinostat; first compound 0.6325 µM)	relative viability (Tosedostat + Vorinostat; first compound 2 µM)
NCI-H358	0.72	0.829	0.778	0.822	0.238	0.188	0.143	0.166	0.157	0.545	0.447	0.55	0.451	0.669	0.562	0.478	0.313	0.264
NCI-H460	0.356	0.359	0.394	0.391	0.514	0.466	0.457	0.468	0.528	0.313	0.326	0.283	0.276	0.83	0.708	0.676	0.699	0.714
NCI-H520	0.864	0.846	0.953	0.88	0.524	0.439	0.414	0.459	0.495	0.888	0.84	0.82	0.764	0.737	0.77	0.59	0.839	0.761
NCI-H596		0.535	0.444	0.391	1.3	1.13	1.03	0.879	0.838		0.845	0.932	0.888	0.731	0.706	0.816	0.692	0.616
NCI-H647	0.724	0.715	0.764	0.704	0.332	0.367	0.286	0.404	0.313	0.673	0.667	0.824	0.58	0.842	0.502	0.566	0.503	0.686
NCI-H650	1.17	0.948	1	0.986	0.291	0.339	0.316	0.319	0.262	0.999	0.833	0.839	0.851	0.752	0.528	0.416	0.334	0.308
NCI-H661	0.73	0.421	0.629	0.564	0.637	0.547	0.535	0.522	0.512	0.541	0.477	0.542	0.417	0.837	0.826	0.796	0.775	0.814
NCI-H727	0.569	0.58	0.593	0.471	0.88	0.9	0.868	0.794	0.754	0.815	0.721	1.01	0.795	1.18	1.26	1.1	0.886	0.683
NCI-H838	0.833	0.867	0.916	0.947	0.483	0.449	0.431	0.421	0.392	0.86	0.645	0.842	0.78	0.772	0.732	0.808	0.833	0.87
NCI-H1355			0.78	0.734	0.347	0.357	0.315	0.332	0.305			0.869	0.78	0.654	0.631	0.705	0.543	0.604
NCI-H1395	0.962	0.897	0.995	1	0.888	0.689	0.715	0.624	0.622	0.849	0.782	1.02	0.873	0.773	0.77	0.743	0.742	0.595
NCI-H1437	0.696	0.63	0.804	0.591	0.537	0.569	0.58	0.566	0.564	0.434	0.486	0.545	0.453	1.04	0.754	0.976	1.12	0.958
NCI-H1651	0.821	0.78	0.777	0.75	0.683	0.63	0.501	0.523	0.503	0.695	0.784	0.691	0.708	0.564	0.609	0.548	0.556	0.472
NCI-H1666	0.672	0.738	0.846	0.792	0.776	0.744	0.696	0.727	0.658	0.303	0.554	0.608	0.428	1.06	1.16	1.06	1.04	1.05
NCI-H1734	0.655	0.635	0.672	0.556	0.487	0.509	0.461	0.418	0.446	0.954	0.683	0.908	0.882	0.949	0.757	0.886	0.612	0.514
NCI-H1755	0.713	0.697	0.709	0.671	0.861	0.699	0.712	0.716	0.674	0.59	0.708	0.665	0.592	0.912	0.795	0.732	0.768	0.637
NCI-H1793	0.716	0.773	0.717	0.559	0.429	0.435	0.407	0.222	0.346	0.75	0.688	0.822	0.581	0.683	0.72	0.714	0.665	0.684
NCI-H1915	0.506	0.391	0.437	0.31	0.226	0.283	0.26	0.261	0.214	0.431	0.334	0.401	0.322	0.51	0.457	0.516	0.503	0.527

Cell Line	relative viability ([1]; first compound 0.253 µM)	relative viability ([1]; first compound 0.8 µM)	relative viability ([1]; first compound 2.53 µM)	relative viability ([1]; first compound 8 µM)	relative viability (Tosedostat + Decitabine; first compound 0.02 µM)	relative viability (Tosedostat + Decitabine; first compound 0.06325 µM)	relative viability (Tosedostat + Decitabine; first compound 0.2 µM)	relative viability (Tosedostat + Decitabine; first compound 0.6325 µM)	relative viability (Tosedostat + Decitabine; first compound 2 µM)	relative viability ([2]; first compound 0.253 µM)	relative viability ([2]; first compound 0.8 µM)	relative viability ([2]; first compound 2.53 µM)	relative viability ([2]; first compound 8 µM)	relative viability (Tosedostat + Vorinostat; first compound 0.02 µM)	relative viability (Tosedostat + Vorinostat; first compound 0.06325 µM)	relative viability (Tosedostat + Vorinostat; first compound 0.2 µM)	relative viability (Tosedostat + Vorinostat; first compound 0.6325 µM)	relative viability (Tosedostat + Vorinostat; first compound 2 µM)
NCI-H1944	0.565	0.629	0.691	0.648	0.456	0.431	0.458	0.416	0.39	0.452	0.526	0.553	0.426	0.632	0.505	0.653	0.523	0.556
NCI-H1975		0.725	0.753	0.779	0.396	0.425	0.4	0.274	0.407		0.746	0.859	0.753	0.741	0.742	0.678	0.611	0.622
NCI-H1993	0.616	0.619	0.65	0.702	0.487	0.673	0.576	0.511	0.525	0.778	0.801	0.737	0.695	0.732	0.728	0.588	0.608	0.548
NCI-H2009	0.712	0.714	0.646	0.626	0.379	0.377	0.404	0.433	0.329	0.453	0.421	0.427	0.464	0.808	0.659	0.736	0.633	0.645
NCI-H2023	0.499	0.444	0.43	0.361	0.23	0.202	0.223	0.167	0.183	0.441	0.407	0.409	0.435	0.641	0.547	0.62	0.358	0.501
NCI-H2085	0.922	0.908	0.8	0.71		0.548	0.495	0.503	0.43	0.644	0.627	0.752	0.612		0.831	0.748	0.897	0.74
NCI-H2087	0.762	0.674	0.615	0.615	0.37	0.23	0.24	0.224	0.225	0.618	0.56	0.554	0.51	0.718	0.667	0.66	0.735	0.667
NCI-H2126	0.696	0.666	0.711	0.598	0.533	0.583	0.591	0.478	0.462	0.552	0.759	0.702	0.699	0.635	0.822	0.81	0.701	0.79
NCI-H2170	0.646	0.593	0.626	0.574	0.454	0.499	0.491	0.421	0.453	0.268	0.241	0.291	0.26	0.923	0.786	0.963	0.724	0.777
NCI-H2347	0.788	0.758	0.801	0.682	0.64	0.609	0.667	0.444	0.542	0.557	0.631	0.593	0.535	0.496	0.451	0.681	0.498	0.575
NCI-H2405	0.745	0.778	0.691	0.828	0.772	0.733	0.712	0.603	0.657	0.756	0.809	0.859	0.754	1.06	1.12	0.955	0.841	0.798
NCI-H3122	0.632	0.642	0.702	0.618	0.497	0.524	0.447	0.411	0.418	0.519	0.675	0.52	0.449	1.02	1.06	1.46	0.879	0.954
PC-3 [JPC-3]	0.915	0.866	0.914	0.901	0.833	0.813	0.872	0.768	0.555	0.404	0.453	0.445	0.432	0.861	0.949	0.656	0.606	0.561
PC-14	0.849	0.827	0.885	0.857	0.218	0.177	0.146	0.0843	0.0753	0.294	0.31	0.302	0.313	0.819	0.653	0.712	0.58	0.458
RERF-LC-KJ	0.765	0.695	0.839	0.781	0.657	0.622	0.615	0.495	0.457	0.623	0.545	0.584	0.57	0.692	0.676	0.604	0.681	0.619
SK-LU-1	0.754	0.812	0.938	0.737	0.624	0.651	0.563	0.471	0.454	0.703	0.749	0.772	0.807	0.897	0.721	0.717	0.677	0.717
SK-MES-1	0.786	0.953	0.859	0.871	0.356	0.372	0.325	0.273	0.346	0.452	0.528	0.445	0.518	1.13	1.03	0.963	1.1	1
SW 1573	0.753	0.722	0.701	0.791	0.675	0.504	0.482	0.451	0.415	1.03	1.09	0.877	0.932	0.984	0.718	0.81	0.671	0.614
